In US10167346B2, “Compositions and methods for making alpha-(1,2)-branched alpha-(1,6) oligodextrans” (TATE & LYLE INGREDIENTS FRANCE SAS, priority 2009, dated 2019):

Tested on: Caenorhabditis elegans
Experiment: lipid content in the in vivo model Caenorhabditis elegans
Conditions: positive control, concentration not given
Protocol: Oligodextrans according to the present invention were evaluated for their effect on lipid content using the in vivo model Caenorhabditis elegans. The substrates evaluated were TLD-1000 (unbranched 1 kDa dextran) and TLD-1030 (1 kDa dextran+32% α-1,2). […] A negative control (DMSO) and positive control (Orlistat) were also included. Each substrate was assayed four times with a total of 120 worms per substrate and concentration.

CCCCCCCCCCC[C@@H](C[C@@H]1OC(=O)[C@H]1CCCCCC)OC(=O)[C@H](CC(C)C)NC=O [Orlistat]
reduction in lipid content: > 40%
